# Measurements as given in patent US20250297152A1, “FLUORINATED SUBSTITUTED OLEFIN REFRIGERANTS AND METHODS OF COOLING ELECTRONICS” (Honeywell International Inc., priority 2024, published 2025).
# Experiments:
# [1] = Dielectric constant (Agilent 85070 Dielectric Probe; ASTM D150-11); format: physicochemical; details: for Dielectric Constant (20 GHz): Table 3, values understood as 'about'; for Calculated Dk at 20 GHz: Table E1, ambient pressure, room temperature (approximately 23° C.)
# Method: “Dielectric Constant” means the dielectric constant as measured in accordance with ASTM D150-11 at room temperature at 20 giga hertz (GHz).
# (§1) The boiling point (“BP”) and dielectric constant (“Dk”) of trans- and cis-secBuFO and trans- and cis-tBuFO were determined and the results are reported below in Table E1. The dielectric property of each of trans- and cis-secBuFO and trans- and cis-tBuFO was determined using the Agilent 85070 Dielectric Probe. All measurements were made at ambient pressure and room temperature (approximately 23° C.). Prior to making measurements, the system was calibrated from 1 GHz to 20 GHz with an open circuit, a short circuit, and DI water (@22.4° C.) standard. The result of the calibration is shown in the Table E1 below for DI H2O, and is consistent with DI water at 22.4° C. The accuracy of the probe is given as: Dielectric constant, er′=er′+/−0.05|er*| with er″=er″+/−0.05|er*| and (loss=er″/er′).
# [2] = format: physicochemical; details: for BP: Table E1
# Method: as §1
# [3] = Toxicological screening study: in vivo acute oral toxicity and 4-hour acute inhalation toxicity; details: acute oral 2,000 mg/kg/day; 4-hour acute inhalation at 18,375 ppm
# Method: “Acceptable toxicity” means a fluid that has toxicity within acceptable limits. This is experimentally determined by a toxicological screening study to assess in vivo acute oral toxicity at a dosage of 2,000 mg/kg/day and 4-hour acute inhalation toxicity at a concentration of about 20,000 ppm.
# A fluid including the trans isomer of the SecBuFO refrigerant was subjected experimentally a toxicological screening study to assess in vivo acute oral toxicity at a dosage of 2,000 mg/kg/day and 4-hour acute inhalation toxicity at a concentration of 18,375 ppm.
Compound,Dielectric Constant (20 GHz) [1],Calculated Dk at 20 GHz [1],Boiling point [2],BP [2],toxicology screening study outcome [3]
"F/C=C/C(C(F)(F)F)(C(F)(F)F)C(F)(F)F [trans-tBuFO, trans-1,4,4,4-tetrafluoro-3,3-bis(trifluoromethyl)but-1-ene]",2.15,2.15,57.9 °C,57.9 °C,–
"F/C=C\C(C(F)(F)F)(C(F)(F)F)C(F)(F)F [cis-tBuFO, cis-1,4,4,4-tetrafluoro-3,3-bis(trifluoromethyl)but-1-ene]",6.51,6.51,76.19 °C,76.19 °C,–
"F/C=C\C(F)(C(F)(F)F)C(F)(F)C(F)(F)F (stereo not drawn) [cis-secBuFO, cis-1,3,4,4,5,5,5-heptafluoro-3-(trifluoromethyl)pent-1-ene]",6.48,6.48,79.27 °C,79.27 °C,–
"F/C=C/C(F)(C(F)(F)F)C(F)(F)C(F)(F)F (stereo not drawn) [trans-secBuFO, trans-1,3,4,4,5,5,5-heptafluoro-3-(trifluoromethyl)pent-1-ene]",2.11,2.11,55.5-55.9 °C,55.5-55.9 °C,passed
